Here are results for five compounds from patent publication US9993505B2, “Innervation of engineered structures” (WAKE FOREST UNIVERSITY HEALTH SCIENCES, priority 2012, dated 2018).

In test [1] the test system is intrinsically innervated internal anal sphincter (IAS) smooth muscle construct. As to the kind of experiment: Real time force generation of bioengineered IAS construct, initially intrinsically innervated (Example 1). In kind it is cell-based, rabbit.
For test [2], the system named is initially non-innervated internal anal sphincter (IAS) smooth muscle construct. Kind of test: Real time force generation of bioengineered IAS construct, initially non-innervated, placed 1 mm away from the innervated construct (Example 1). In kind it is cell-based, rabbit.
Test [3] has as its system intrinsically innervated rabbit colon circular smooth muscle construct. Kind of test: Real time force generation of bioengineered colon smooth muscle construct, intrinsically innervated (Example 2). Format: cell-based.
Test [4] concerns initially non-innervated rabbit colon circular smooth muscle construct. As to the kind of experiment: Real time force generation of bioengineered colon smooth muscle construct, initially non-innervated (Example 2). Format: cell-based.

Take `CC(=O)OCC[N+](C)(C)C` [Acetylcholine, acetylcholine]: the “force generation induced by acetylcholine” value was 153 μN in test [1] (Acetylcholine 1 μM, day 20, innervated IAS construct) and 80 μN in test [2] (Acetylcholine 1 μM, day 20, initially non-innervated IAS construct). The “average contraction induced by Ach” value is listed as 150±24 μN in test [3] (1 μM Ach, innervated colon constructs) and 130±28 μN in test [4] (1 μM Ach, non-innervated colon constructs).

For vasoactive intestinal peptide [VIP], the “maximal relaxation induced by VIP” value in test [3] (1 μM VIP, innervated colon constructs) is on record as 145±15 μN; in test [4] (1 μM VIP, non-innervated colon constructs), 120±18 μN.

In the case of `NC1=N[C@H](O)[C@H]2[C@H]3O[C@]4(O)O[C@@H]([C@@H](O)[C@@]2(N1)[C@@H]4O)[C@]3(O)CO` [TTX, tetrodotoxin], in test [1], the “inhibition of EFS-induced relaxation by pre-treatment” value is on record as “completely inhibited” and the “inhibition of acetylcholine-induced force generation by pre-treatment” value is 58%. In test [2], the “inhibition of EFS-induced relaxation by pre-treatment” value was “completely inhibited” and the “inhibition of acetylcholine-induced force generation by pre-treatment” value is 40%. Also, in test [3], the “attenuation of peak maximal Ach contraction in the presence of TTX” value is 50-60%, the “effect of TTX preincubation on response to EFS” value is listed as “completely abolished” and the “inhibition of VIP-induced relaxation in the presence of TTX” value is 60%. For the same compound, in test [4], the “effect of TTX on EFS-induced relaxation” value is recorded as “completely blocked”, the “effect of TTX on maximal Ach contraction” value is reported as “reduced the maximal contraction” and the “inhibition of VIP-induced relaxation in the presence of TTX” value worked out at 50%.

On to `CN1[C@@H]2CC[C@H]1C[C@@H](OC(=O)C(CO)c1ccccc1)C2` (some centres unmarked) [atropine], for which the entries for the “inhibition of acetylcholine-induced force generation by pre-treatment” value in test [1] and in test [2] were 90% and 75%, respectively.

For `[Cl-].[K+]` [KCl, potassium chloride], the “average contraction induced by KCl” value in test [3] was 300±24 μN; in test [4], 224±42 μN.
